Tested on: PDC KRAS tumor spheroids with HUVEC/MSC, viability
Assay: Anticancer human tumor 349418-098-R-PDC patient-derived lung adenocarcinoma cell line growth inhibition [KRAS2]
Conditions: for IC50: curve of first compound; for viability, T/C: stronger effect = lower value
Description: Multicellular complex tumor spheroid response to RAS pathway inhibitors in combination with a targeted agents in patient-derived cell lines with oncogenic KRAS variants from multiple cancer types
A high-throughput screen of multi-cell type tumor spheroids was designed to identify active combinations of targeted small molecules and KRAS pathway inhibitors. Complex spheroids include a stromal component modeled by human endothelial cells (HUVEC) and fibroblasts modeled by human mesenchymal stem cells (MSCs). The concentration ranges selected for each drug and investigational agent were based upon clinically achievable concentrations if the clinical Cmax of the agent was known.
Compounds. The drugs and investigational agents: BI-3406 (NSC825286), BAY-293 (NSC824723), batoprotafib (TNO155; NSC825523), sotorasib (AMG 510; NSC818433), MRTX1257 (NSC819558), elimusertib (BAY 1895344; NSC800525), molibresib (GSK525762; NSC774829), temuterkib (LY3214996; NSC803410), venetoclax (NSC766270), alisertib (NSC759677), olaparib (NSC753686), talazoparib (NSC767125), erdafitinib (NSC781556), ipatasertib (NSC767898), cabozantinib (NSC761068), nintedanib (NSC756659), abemaciclib (NSC768073), docetaxel (NSC628503), trametinib (NSC758246), and sapanisertib (NSC764658) were obtained from the National Cancer Institute (NCI) Developmental Therapeutics Program Chemical Repository. The FDA-approved anticancer drug set is available from the Developmental Therapeutics Program. […] The stock solutions were prepared in dimethyl sulfoxide (DMSO, Sigma-Aldrich, St. Louis, MO, cat. D2650) at 800-fold the tested concentration and stored at -70 degrees C prior to their use. All drugs and investigational agents were tested over a range starting from a high concentration at or near the clinical Cmax and decreasing in half-log increments. If the clinical Cmax for an agent had not been determined, the highest concentration tested was 10 microM.
Cell Culture. All cells were maintained in an incubator at 37 degrees C and 5% CO2 with 95% humidity. The PDC lines were cultured according to standard operating procedures established by the NCI PDMR (https://pdmr.cancer.gov/sops/default.htm). Briefly, all PDCs were thawed and cultured in Matrigel-coated flasks prepared with a working solution of 1X Ham's F-12 nutrient mix, without supplementation (Invitrogen, Waltham, MA, cat. 11765054), 100 U/mL penicillin-streptomycin (Invitrogen, cat. 15140122), and 2.5% Matrigel (Corning Inc., Corning, NY, cat. 354248) for the first three passages. All PDCs were cultured in complete DMEM/F-12 media containing advanced DMEM/F-12 (Invitrogen, cat. 12634028), 4.9% defined fetal bovine serum, heat inactivated (HyClone Laboratories Inc., Logan, UT, cat. SH30070.03HI), 389 ng/mL hydrocortisone (Sigma-Aldrich, cat. H4001), 9.7 ng/mL human EGF recombinant protein (Invitrogen, cat. PHG0313), 23.4 microg/mL adenine (Sigma-Aldrich, cat. A2786), 97.3 U/mL penicillin-streptomycin (Invitrogen, cat. 15140122), 1.9 mM L-glutamine (Invitrogen, cat. 25030081), and 9.7 microM Y-27632 dihydrochloride (Tocris Bioscience, Bristol, United Kingdom, cat. 1254). The PDCs were cultured in complete DMEM/F12 media without 9.7 microM Y-27632 dihydrochloride for at least two passages prior to the screen. The established cell line HOP-62 was cultured in RPMI 1640 medium, HEPES (Invitrogen, cat. 22400105) with 10% defined fetal bovine serum (HyClone Laboratories Inc., cat. SH30070.03) and 2 mM L-glutamine (Invitrogen, cat. 25030081). The pooled donor HUVEC were cultured in endothelial cell growth medium 2 (PromoCell, Heidelberg, Germany, cat. C-22011) and the hMSC were cultured in mesenchymal stem cell growth medium 2 (PromoCell, cat. C-28009). For all experiments, HUVEC and hMSC were used at passages </=5, while the malignant cell lines were used at passages </=15. […]

[1] = second compound 0.1 µM, first compound 0.0316 µM
[2] = second compound 0.1 µM, first compound 0.1 µM
[3] = second compound 0.1 µM, first compound 0.316 µM
[4] = second compound 0.1 µM, first compound 1 µM
[5] = second compound 0.1 µM, first compound 3.16 µM
[6] = second compound 0.1 µM, first compound 10 µM
[7] = second compound 0.316 µM, first compound 0.0316 µM
[8] = second compound 0.316 µM, first compound 0.1 µM
[9] = second compound 0.316 µM, first compound 0.316 µM
[10] = second compound 0.316 µM, first compound 1 µM
[11] = second compound 0.316 µM, first compound 3.16 µM
[12] = second compound 0.316 µM, first compound 10 µM
[13] = second compound 1 µM, first compound 0.0316 µM
[14] = second compound 1 µM, first compound 0.1 µM
[15] = second compound 1 µM, first compound 0.316 µM
[16] = second compound 1 µM, first compound 1 µM
[17] = second compound 1 µM, first compound 3.16 µM
[18] = second compound 1 µM, first compound 10 µM
[19] = second compound 3.16 µM, first compound 0.0316 µM
[20] = second compound 3.16 µM, first compound 0.1 µM
[21] = second compound 3.16 µM, first compound 0.316 µM
[22] = second compound 3.16 µM, first compound 1 µM
[23] = second compound 3.16 µM, first compound 3.16 µM
[24] = second compound 3.16 µM, first compound 10 µM
[25] = second compound 10 µM, first compound 0.0316 µM
[26] = second compound 10 µM, first compound 0.1 µM
[27] = second compound 10 µM, first compound 0.316 µM
[28] = second compound 10 µM, first compound 1 µM
[29] = second compound 10 µM, first compound 3.16 µM
[30] = second compound 10 µM, first compound 10 µM
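Note: spheroids exposed to compounds for seven days before readout.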

SMILES | IC50 (second compound 0.1 µM) [nM] | IC50 (second compound 0.316 µM) [nM] | IC50 (second compound 1 µM) [nM] | IC50 (second compound 3.16 µM) [nM] | IC50 (second compound 10 µM) [nM] | viability, T/C [1] [%] | viability, T/C [2] [%] | viability, T/C [3] [%] | viability, T/C [4] [%] | viability, T/C [5] [%] | viability, T/C [6] [%] | viability, T/C [7] [%] | viability, T/C [8] [%] | viability, T/C [9] [%] | viability, T/C [10] [%] | viability, T/C [11] [%] | viability, T/C [12] [%] | viability, T/C [13] [%] | viability, T/C [14] [%] | viability, T/C [15] [%] | further results
COc1cc(Nc2ncc3c(n2)-c2ccc(Cl)cc2C(c2c(F)cccc2OC)=NC3)ccc1C(=O)O + C=CC(=O)N1CCN(c2nc(=O)n(-c3c(C)ccnc3C(C)C)c3nc(-c4c(O)cccc4F)c(F)cc23)C(C)C1 | < 31.6 | < 31.6 | < 31.6 | < 31.6 | < 31.6 | 29 | 18.9 | 20.6 | 42.2 | 61.3 | 39.2 | 45.5 | 34.7 | 50.7 | 59.3 | 42.7 | 37.5 | 14.8 | 32.8 | 54.8 | viability, T/C [16]: 69.5%; viability, T/C [17]: 53.1%; viability, T/C [18]: 42.8%; viability, T/C [19]: 30.7%; viability, T/C [20]: 32%; viability, T/C [21]: 48.5%; viability, T/C [22]: 37.5%; viability, T/C [23]: 40.9%; viability, T/C [24]: 35.7%; viability, T/C [25]: 29.8%; viability, T/C [26]: 39.5%; viability, T/C [27]: 33.7%; viability, T/C [28]: 35.4%; viability, T/C [29]: 36.8%; viability, T/C [30]: 29.3%
COc1cc2nccc(Oc3ccc(NC(=O)C4(C(=O)Nc5ccc(F)cc5)CC4)cc3)c2cc1OC + C=CC(=O)N1CCN(c2nc(=O)n(-c3c(C)ccnc3C(C)C)c3nc(-c4c(O)cccc4F)c(F)cc23)C(C)C1 | 1690 | 1650 | 1610 | 1190 | < 31.6 | 99.4 | 98.3 | 90.7 | 78.6 | 13.2 | 18.1 | 93.2 | 92.2 | 86.4 | 75.9 | 9.48 | 22.8 | 83.2 | 80.7 | 73.2 | viability, T/C [16]: 76.7%; viability, T/C [17]: 10.7%; viability, T/C [18]: 14.3%; viability, T/C [19]: 62.1%; viability, T/C [20]: 64.5%; viability, T/C [21]: 58.6%; viability, T/C [22]: 56.4%; viability, T/C [23]: 10.2%; viability, T/C [24]: 16.6%; viability, T/C [25]: 30.1%; viability, T/C [26]: 38.1%; viability, T/C [27]: 36%; viability, T/C [28]: 30.1%; viability, T/C [29]: 7.88%; viability, T/C [30]: 9.17%
